Values of other authors, collected in patent publication US20080255097A1, “Methods for the Treatment of Substance Abuse and Dependence” (priority 2005, published 2008).

Assays:
[1] = not given; remark: listed apart in the source
[2] = overdose
[3] = test system: GABAA receptor α4 subunit mRNA; details: exposure at the time of ethanol withdrawal
[4] = test system: GABAA receptor α4 subunit mRNA; details: withdrawal after long-term exposure
[5] = test system: GABAA receptors; details: 10 μM diazepam substituted for ethanol
[6] = test system: allopregnanolone; details: in vivo
[7] = test system: allopregnanolone; details: in vivo; remark: listed apart in the source

N[C@@H]1C[C@H]1c1ccccc1 (racemic) [TRANYLCYPROMINE]
time in which the drug is excreted (after withdrawal): 24 h

C[C@]12C=CC(=O)N[C@@H]1CC[C@@H]1[C@@H]2CC[C@]2(C)[C@@H](C(=O)Nc3cc(C(F)(F)F)ccc3C(F)(F)F)CC[C@@H]12 [Dutasteride, (5α,17β)-N-{2,5 bis(trifluoromethyl)phenyl}-3-oxo-4-azaandrost-1-ene-17-carboxamide]
adverse effects compared with therapeutic dose of 0.5 mg ([1]; clinical study, daily doses of 5 mg, 60 subjects, 6 months): subjects for 6 months with no additional adverse effects to those
safety ([1]; volunteer studies, single doses up to 40 mg (80 times the therapeutic dose) for 7 days): without significant safety concerns. In a clinical study, daily doses

NCC1(CC(=O)O)CCCCC1 [Gabapentin]
half-life (in vivo): 5 to 7 h
metabolism (in vivo): not appreciably metabolized

CCCC(C)(COC(N)=O)COC(N)=O [MEPROBROMATE]
highest ingested amount with survival [2]: much as 40 g.

C=CCN1CC[C@]23c4c5ccc(O)c4O[C@H]2C(=O)CC[C@@]3(O)[C@H]1C5 [Naloxone, 17-allyl-4,5α-epoxy-3,14-dihydroxymorphinan-6-one]
half-life (in vivo): 1 to 1.67 h

CN1C(=O)CN=C(c2ccccc2)c2cc(Cl)ccc21 [diazepam]
effect on ethanol withdrawal-induced increase in abundance of α4 subunit mRNA [3]: antagonizes
amount of α4 subunit mRNA on withdrawal of the drug [4]: marked increase
effect on positive modulation of 3 μM flumazenil induced by ethanol withdrawal [5]: negated

CNCCC(Oc1ccc(C(F)(F)F)cc1)c1ccccc1 (stereo not drawn) [fluoxetine]
brain and cerebrospinal fluid content of allopregnanolone [6]: increase

CN1CCC[C@H]1c1cccnc1 [nicotine]
cerebrocortical concentrations of allopregnanolone and its precursors [7]: increase
half-life (in vivo): about 60 minutes

CCN(C(C)=O)c1cccc(-c2ccnc3c(C#N)cnn23)c1 [zalpelon]
amount of α4 subunit mRNA on withdrawal of the drug [4]: marked increase

Cc1ccc(-c2nc3ccc(C)cn3c2CC(=O)N(C)C)cc1 [zolpidem]
amount of α4 subunit mRNA on withdrawal of the drug [4]: marked increase
